Values joined by “and” are separate entries in the source; they are usually repeats but may differ in a detail not shown here. Equal entries are not always repeated. Where two headings read alike, the source gives them in different places.
Tests used:
[1] = type: physicochemical
[2] = type: physicochemical; conditions: 1 w
Procedure: For each salt, approximately 5 mg compound was added into an 8 mL glass vial with a multi-hole aluminum foil cap, and kept at 60° C., 40° C./75% RH for 1 week. […] Appearance by visual observation were recorded followed by purity assessment and XPRD data collection on the residual solids.

Structure (SMILES)	Final purity ([1]; 1.2 million lux-hrs)	XRPD patterns ([1]; 1.2 million lux-hrs)	Final purity ([1]; Dark control)	XRPD patterns ([1]; Dark control)	Final purity ([2]; 40° C./75% RH)	XRPD patterns ([2]; 40° C./75% RH)	Final purity ([2]; 60° C.)	XRPD patterns ([2]; 60° C.)	XRPD pattern ([1]; 1.2 million lux-hrs)	XRPD pattern ([1]; Dark control)	XRPD pattern ([2]; 40° C./75% RH)	XRPD pattern ([2]; 60° C.)
COC[C@@]1(O)CC[C@@]2(C)[C@@H](CC[C@@H]3[C@@H]2CC[C@]2(C)[C@@H](C(=O)Cn4ccnc4)CC[C@@H]32)C1.Cl [Hydrochloride (Form A)]	99.5	Form A	99.5	Form A	99.4	Form A	99.5	Form A				
COCC1(O)CCC2(C)C(CCC3C2CCC2(C)C(C(=O)Cn4ccnc4)CCC32)C1.O=CC(O)C(O)C(O)C(O)C(=O)O (stereo not drawn) [Glucuronate (Form A)]	97.5	Form A	97.5	Form A	98.0	Form A	96.7	Form A				
COCC1(O)CCC2(C)C(CCC3C2CCC2(C)C(C(=O)Cn4ccnc4)CCC32)C1.O=S(=O)(O)CCO (stereo not drawn) [Isethionate (Form A)]	98.9	Form A	98.8	Form A	98.5	Form A	98.7	Form A				
COC[C@@]1(O)CC[C@@]2(C)[C@@H](CC[C@@H]3[C@@H]2CC[C@]2(C)[C@@H](C(=O)Cn4ccnc4)CC[C@@H]32)C1.O=C(O)CC(=O)O [Malonate (Form A)]	98.2	Form A	99.0	Form A	98.5	Form A	97.0	Form A				
COC[C@@]1(O)CC[C@@]2(C)[C@@H](CC[C@@H]3[C@@H]2CC[C@]2(C)[C@@H](C(=O)Cn4ccnc4)CC[C@@H]32)C1.O=S(=O)(O)c1ccccc1 [Besylate (Form A)]	98.7	Form A	98.4	Form A	98.3	Form A	98.3	Form A				
COCC1(O)CCC2(C)C(CCC3C2CCC2(C)C(C(=O)Cn4ccnc4)CCC32)C1.Cl (stereo not drawn) [Hydrochloride (Form C)]	100.0	Form C	99.2	Form C	100.0	Form C	98.6	Form C				
CCS(=O)(=O)O.COCC1(O)CCC2(C)C(CCC3C2CCC2(C)C(C(=O)Cn4ccnc4)CCC32)C1 (stereo not drawn) [Ethanesulfonate (Form A)]	97.7	Form A	97.4	Form A	98.0	Form A	98.2	Form A				
COCC1(O)CCC2(C)C(CCC3C2CCC2(C)C(C(=O)Cn4ccnc4)CCC32)C1.O=C(O)c1cc(O)ccc1O (stereo not drawn) [Gentisate salt (Form A)]	96.0	Form A	97.6	Form A	97.6	Form A	97.0	Form A				
COCC1(O)CCC2(C)C(CCC3C2CCC2(C)C(C(=O)Cn4ccnc4)CCC32)C1.O=C(O)C(Cl)Cl (stereo not drawn) [Dichloroacetate (Form A)]	96.4	Form A	97.3	Form A	98.0	Form A	96.3	Form A				
COCC1(O)CCC2(C)C(CCC3C2CCC2(C)C(C(=O)Cn4ccnc4)CCC32)C1.O=C(O)c1ccc2ccccc2c1O (stereo not drawn) [1-hydroxy-2-napthoate (Form A)]	92.64	Form A	91.96	Form A	92.64	Form A	88.91	Form A				
COCC1(O)CCC2(C)C(CCC3C2CCC2(C)C(C(=O)Cn4ccnc4)CCC32)C1.CS(=O)(=O)O (stereo not drawn) [Mesylate (Form A)]	99.3	Form A	99.4	Form A	99.4	Form D	99.4	Form A				
COC[C@@]1(O)CC[C@@]2(C)[C@@H](CC[C@@H]3[C@@H]2CC[C@]2(C)[C@@H](C(=O)Cn4ccnc4)CC[C@@H]32)C1.O=C1O[C@H]([C@@H](O)CO)C(O)=C1O [Ascorbate (Form A)]	96.8	Form A	96.8	Form A	96.4	Form A	95.7	Form A				
COC[C@@]1(O)CC[C@@]2(C)[C@@H](CC[C@@H]3[C@@H]2CC[C@]2(C)[C@@H](C(=O)Cn4ccnc4)CC[C@@H]32)C1 [Compound 1, 3α-Hydroxy-3β-methoxymethyl-21-(1′-imidazolyl)-5α-pregnan-20-one]	97.9 and 99.2 and 97.92	Pattern A	98.3 and 99.1	Pattern A	98.2 and 99.1 and 98.23	Pattern A	98.2 and 99.3 and 98.15	Pattern A	Pattern A	Pattern A	Pattern A	Pattern A
COCC1(O)CCC2(C)C(CCC3C2CCC2(C)C(C(=O)Cn4ccnc4)CCC32)C1.Cl (stereo not drawn) [Hydrochloride (Form B)]	98.2	Form B	98.59	Form B	100.0		100.0	Form B				
COC[C@@]1(O)CC[C@@]2(C)[C@@H](CC[C@@H]3[C@@H]2CC[C@]2(C)[C@@H](C(=O)Cn4ccnc4)CC[C@@H]32)C1.O=S(=O)(O)O [Sulfate (Form A)]	97.1	Form A	97.6	Form A	97.5	Form A	96.2	Form A				
COCC1(O)CCC2(C)C(CCC3C2CCC2(C)C(C(=O)Cn4ccnc4)CCC32)C1.O=S(=O)(O)c1ccc2ccccc2c1 (stereo not drawn) [Napsylate (Form A)]	99.0	Form A	99.1	Form A	99.1	Form A	99.1	Form A				
COCC1(O)CCC2(C)C(CCC3C2CCC2(C)C(C(=O)Cn4ccnc4)CCC32)C1.O=C(O)C(O)C(O)C(=O)O (stereo not drawn) [L(+)-Tartrate (Form A)]	99.4	Form A	99.2	Form A	99.3	Form A	99.3	Form A				
COCC1(O)CCC2(C)C(CCC3C2CCC2(C)C(C(=O)Cn4ccnc4)CCC32)C1.Cc1ccc(S(=O)(=O)O)cc1 (stereo not drawn) [Tosylate (Form A)]	99.0	Form A	99.5	Form A	99.5		99.5	Form A				
COC[C@@]1(O)CC[C@@]2(C)[C@@H](CC[C@@H]3[C@@H]2CC[C@]2(C)[C@@H](C(=O)Cn4ccnc4)CC[C@@H]32)C1.O=P(O)(O)O [Phosphate (Form A)]	98.9	Form A	99.2	Form A	99.2	Form A	99.2	Form A				
COCC1(O)CCC2(C)C(CCC3C2CCC2(C)C(C(=O)Cn4ccnc4)CCC32)C1.O=C(O)CC(O)C(=O)O [L-Malate (Form A)]	99.3	Form A	99.3	Form A	99.2	Form A	99.6	Form A				
COC[C@@]1(O)CC[C@@]2(C)[C@@H](CC[C@@H]3[C@@H]2CC[C@]2(C)[C@@H](C(=O)Cn4ccnc4)CC[C@@H]32)C1.O=C(O)C(=O)O [Oxalate (Form A)]	98.2	Form A	98.9	Form A	98.4	Form A	98.3	Form A				
COCC1(O)CCC2(C)C(CCC3C2CCC2(C)C(C(=O)Cn4ccnc4)CCC32)C1.Nc1ccc(C(=O)O)c(O)c1 (stereo not drawn) [P-aminosalicylate (Form A)]	95.7	Form A	95.8	Form A	97.0	Form A	91.5	Form A				
COC[C@@]1(O)CC[C@@]2(C)[C@@H](CC[C@@H]3[C@@H]2CC[C@]2(C)[C@@H](C(=O)Cn4ccnc4)CC[C@@H]32)C1.O=C(O)C(O)C(O)C(=O)O [L(+)-Tartrate (Form B)]	99.3	Form B	99.2	Form B	99.2	Form B	99.2	Form B				

— patent US10927141B2 (priority 2018, dated 2021)
